Source: patent publication US20230190677A1, “PHARMACEUTICAL COMPOSITION FOR PREVENTING OR TREATING AGING-RELATED DISEASES” (INDUSTRY ACADEMIC COOPERATION FOUNDATION CHOSUN UNIVERSITY, priority 2021, published 2023)

How the values were obtained:
[1] = test system: AMPK; assay: Immunoblotting of AMPK activation, oxidative stress-induced senescence; format: cell-based, human
Description: (§1) H2O2 was used to induce oxidative stress-induced cell cycle arrest and senescence. Briefly, the cells were exposed to 200 μM H2O2 for 2 h and cultured for 2 d without H2O2. In the second treatment with H2O2, the cells were split 1:3, exposed to 200 μM H2O2 for 2 h, and cultured with either normal media (control), Lico D (1 μg/mL), ascorbic acid (500 μM AA; a positive control), or the compound C (0.5 μM; AMPK inhibitor) for 72 h. Cellular senescence was confirmed by SA-β-gal assay and Western blotting as described below.
(§2) Total proteins were extracted with RIPA (radioimmunoprecipitation) lysis buffer system containing phenylmethylsulfonyl fluoride (PMSF), sodium orthovanadate (Na3VO4), and protease inhibitor cocktail (Santa Cruz Biotechnology) at 4° C. for 30 min, and the samples were centrifuged (spun down) at 16,000×g for 20 min. The total protein concentration was quantified using the Pierce BCA Protein Assay Kit (Thermo Fisher Scientific). Proteins (30-50 μg) were loaded and separated via sodium dodecyl sulphate-polyacrylamide gel electrophoresis (SDS-PAGE) gel electrophoresis, followed by blotting on a PVDF membrane (GE Healthcare, Germany). The membranes were blocked with 1% blocking solution containing non-fat dry milk in TBST for 1 h 30 min at RT to prevent non-specific binding of primary antibodies. […]

[2] = test system: LC3, BECN1, SQSTM1; assay: Immunoblotting of autophagy markers, oxidative stress-induced senescence; format: cell-based, human
Description: as §1
(§3) Total proteins were extracted with RIPA (radioimmunoprecipitation) lysis buffer system containing phenylmethylsulfonyl fluoride (PMSF), sodium orthovanadate (Na3VO4), and protease inhibitor cocktail (Santa Cruz Biotechnology) at 4° C. for 30 min, and the samples were centrifuged (spun down) at 16,000×g for 20 min. The total protein concentration was quantified using the Pierce BCA Protein Assay Kit (Thermo Fisher Scientific). Proteins (30-50 μg) were loaded and separated via sodium dodecyl sulphate-polyacrylamide gel electrophoresis (SDS-PAGE) gel electrophoresis, followed by blotting on a PVDF membrane (GE Healthcare, Germany). The membranes were blocked with 1% blocking solution containing non-fat dry milk in TBST for 1 h 30 min at RT to prevent non-specific binding of primary antibodies. Subsequently, the membranes were incubated overnight at 4° C. with the corresponding primary antibodies. Secondary antibodies were conjugated with horseradish peroxidase and visualized using an enhanced chemiluminescence detection kit (GE Healthcare). Densitometry analysis was performed using the ImageJ software.

[3] = test system: hBM-MSCs; assay: MTT cell viability assay (cytotoxic effect); format: cell-based, human; conditions: Lico D 0-8 μg/mL for 12 h, MTT (FIG. 1A)
Description: (§4) Human bone marrow derived mesenchymal stem cells (hBM-MSCs) were acquired from Cell Engineering for Origin (CEFO), Seoul, Korea. The cells were free from bacterial, viral, and mycoplasmal contamination. […] The cells were grown in Dulbecco's modified Eagle medium (DMEM) (Gibco, Life Technologies, Grand Island, N.Y., USA) supplemented with 10% FBS (Gibco, Life Technologies, USA), L-glutamine, and 1% penicillin/streptomycin solution (Lonza, Walkersville, Md., USA). The cells were manipulated under sterile conditions in a humidified incubator at 37° C. with 5% CO2 and 95% air. The cells were subcultured as soon as they reached confluence. The cells were serially monitored under bright field microscopy (Nikon Eclipse TS100; Tokyo, Japan), and the media was changed every 3 d.
(§5) The cytotoxic and protective effects of Lico D in hBM-MSCs were determined using the methylthiazolyldiphenyl-tetrazolium bromide (MTT) test, according to the manufacturer's instructions. To check the cytotoxic effect, hBM-MSCs were grown in a 96-well plate at a density of 8×10^3 cells per well. […] Cell viability was assessed using a spectrophotometer (Multiskan FC, Thermo Fisher Scientific). […] Following H2O2 treatment, cells were treated with MTT solution for 2 h, and cell viability was evaluated.

[4] = test system: hBM-MSCs; assay: MTT cell viability assay (protective effect against H2O2); format: cell-based, human; conditions: hBM-MSCs pre-treated with 1 μg/mL for 12 h, then H2O2 0-1 mM for 1 h (FIG. 1B)
Description: as §4, §5

[5] = test system: hBM-MSCs; assay: Detection of intracellular ROS (DCFH-DA); format: cell-based, human; conditions: hBM-MSCs pretreated 1 μg/mL 12 h, H2O2 0.7 mM 1 h, vs H2O2 alone (FIGS. 1C, 1D)
Description: (§6) To quantify the production of intracellular ROS, we used cell permeable substrate 2′,7′-dichlorofluorescin diacetate (DCFH-DA), which can be converted to highly detectable fluorescent 2′,7′-dichlorofluorescein upon oxidation. The cells were cultured in 12-well plates and 96-well plates for 24 h. After 24 h of culture, the cells were treated with 1 μg/mL of Lico D for 12 h and incubated with 20 μM DCFH-DA for 30 min. The cells were then washed with a phosphate-buffered saline (PBS) solution and incubated with H2O2 (0.7 mM) for 1 h at 37° C. The cells were then fixed with 4% paraformaldehyde at room temperature (RT) for 15 min and the nuclei were stained with Hoechst. Then, the cells were observed under a fluorescent microscope (Nikon Eclipse Ti2; Japan), and the images were captured (Nikon DS-Ri2; Japan) and analyzed using the Image J software. To analyze the apoptotic markers, the cells were pretreated with 1 μg/mL of Lico D followed by incubation with H2O2 (0.7 mM) for 1 h at 37° C., and then the proteins were isolated as described below.

[6] = test system: p53 and cleaved caspase 3; assay: Immunoblotting of apoptotic markers after H2O2; format: cell-based, human; conditions: hBM-MSCs pretreated 1 μg/mL, H2O2 0.7 mM 1 h, vs H2O2 alone (FIG. 1E)
Description: as §6, with “To analyze the apoptotic markers, the cells were pretreated with 1 μg/mL of Lico D followed by incubation with H2O2 (0.7 mM) for 1 h at 37° C., and then the proteins were isolated as described below.” left out
Total proteins were extracted with RIPA (radioimmunoprecipitation) lysis buffer system containing phenylmethylsulfonyl fluoride (PMSF), sodium orthovanadate (Na3VO4), and protease inhibitor cocktail (Santa Cruz Biotechnology) at 4° C. for 30 min, and the samples were centrifuged (spun down) at 16,000×g for 20 min. The total protein concentration was quantified using the Pierce BCA Protein Assay Kit (Thermo Fisher Scientific). […]

[7] = test system: hBM-MSCs; assay: Senescence-associated β-galactosidase (SA-β-gal) staining, oxidative stress-induced senescence; format: cell-based, human; conditions: double time 200 μM H2O2 treated hBM-MSCs (40% without treatment); Lico D 1 μg/mL or ascorbic acid 500 μM for 72 h (FIG. 2C)
Description: as §1
Senescence-associated β-galactosidase positive cells were identified using an SA-β-gal assay kit (Cell Signaling Technology, Danvers, Mass., USA) according to the manufacturer's instructions. Briefly, after 72 h of treatment, cells were washed with phosphate-buffered saline (PBS) and fixed with 1× fixative for 10-15 min at room temperature. The β-galactosidase staining solution (pH 6.0) was added to the plates and incubated overnight in a dry incubator at 37° C. without CO2. The next day, the β-Gal positive cells were observed under a light microscope (Nikon Eclipse TS100; Tokyo, Japan) and captured using a Canon i-Solution IMTcam3 digital camera (Tokyo, Japan).

[8] = test system: p53, p16, and p21; assay: Immunoblotting of senescence markers, oxidative stress-induced senescence; format: cell-based, human; conditions: double time H2O2 treated hBM-MSCs, Lico D 1 μg/mL 72 h (FIGS. 3A-3D)
Description: as §1, §2

[9] = Body weight in D-Gal induced aging mice; format: in vivo, C57BL/6 mice; conditions: D-Gal 150 mg/kg/day i.p. 10 weeks, Lico D 0.5 mg/kg/day i.p. 8 weeks, measured weekly (FIG. 5B)
Description: (§7) Six-week-old male C57BL/6 mice (weighing 22±2 g) were purchased from Samtako Bio Korea Co., Ltd. (Osan, Gyeonggi, Korea) and maintained at 23-25° C. under a 12-h light and 12-h dark cycle with free access to food and water in a pathogen-free facility. All animal experiments were approved by the Institutional Animal Care and Use Committee of Chosun University (CIACUC2020-S0009). After a week of acclimation, the animals were randomly divided into three groups (four mice per group): normal control group (PBS alone), D-Galactose model group (150 mg/kg/day), and D-Galactose +Lico D (0.5 mg/kg/day). The mice were intraperitoneally injected with either PBS or D-Gal for 10 weeks and from the third week onwards, the mice were intraperitoneally injected with Lico D for 8 weeks (FIG. 5A). Body weight was measured every week until the end of the experiment. Thereafter, the MWM (Morris water maze) test was performed for one week.

[10] = test system: RAGE; assay: qRT-PCR of RAGE in D-Gal induced aging mice; format: in vivo, C57BL/6 mice; conditions: hippocampus, Lico D 0.5 mg/kg/day i.p. vs D-Gal treated mice (FIG. 5C)
Description: as §7
RNAisoPlus (Takara) was used to isolate total RNA from the hippocampus and heart tissues. Total RNA (2.5 μg) was then reverse-transcribed using PrimescriptTM II 1st strand cDNA synthesis kit (Takara) and quantified using the Power SYBR Green PCR Master mix (Applied BioSystems). To amplify β-actin and RAGE, the mouse primers in Table 1 below were used. […]

[11] = test system: D-Gal induced aging mice; assay: Morris water maze (MWM) test in D-Gal induced aging mice; format: in vivo, C57BL/6 mice
Description: as §7

[12] = test system: p53 and p21; assay: Immunoblotting of senescence markers in heart and hippocampus tissues of D-Gal induced aging mice; format: in vivo, C57BL/6 mice
Description: as §3, with “Densitometry analysis was performed using the ImageJ software.” left out
(§8) Six-week-old male C57BL/6 mice (weighing 22±2 g) were purchased from Samtako Bio Korea Co., Ltd. (Osan, Gyeonggi, Korea) and maintained at 23-25° C. under a 12-h light and 12-h dark cycle with free access to food and water in a pathogen-free facility. […] Body weight was measured every week until the end of the experiment. […]

[13] = test system: AMPK; assay: Immunoblotting of AMPK activation in heart and hippocampus tissues of D-Gal induced aging mice; format: in vivo, C57BL/6 mice
Description: as §3, with “Densitometry analysis was performed using the ImageJ software.” left out
as §8

[14] = test system: LC3 II, BECN1 and SQSTM1; assay: Immunoblotting of autophagy markers in heart tissue of D-Gal induced aging mice; format: in vivo, C57BL/6 mice; conditions: Lico D 0.5 mg/kg/day i.p. vs D-Gal-treated mice (FIGS. 8A-8D)
Description: as §3, with “Densitometry analysis was performed using the ImageJ software.” left out
as §8

[15] = test system: human melanoma, oral squamous cell carcinoma and lung adenocarcinoma; conditions: previously reported; cited from earlier work
[16] = oxidative stress-induced senescent hBM-MSCs, Lico D 1 μg/mL (FIGS. 4A-4D)

c1cc(-c2cnn3cc(-c4ccc(OCCN5CCCCC5)cc4)cnc23)ccn1 [CC, reference compound]
Lico D-mediated AMPK activation upon treatment with CC ([1]; senescent hBM-MSCs, compound C 0.5 μM with Lico D (FIGS. 3E, 3F)): abolished | AMPK-mediated autophagy upon treatment with CC ([2]; senescent hBM-MSCs, compound C 0.5 μM with Lico D (FIGS. 4A-4D)): inhibited

COc1c(/C=C/C(=O)c2ccc(O)c(CC=C(C)C)c2)ccc(O)c1O [Lico D, Licochalcone D]
cell viability [3]: no significant changes in cell viability | cell viability under H2O2 oxidative stress [4]: significantly increased | intracellular ROS levels [5]: significantly reduced | expression of apoptotic proteins p53 and cleaved caspase 3 [6]: reduced | number of SA-β-gal-positive cells [7]: 13% | expression of senescence markers p53, p16, and p21 [8]: reduced | AMPK activation (pAMPK/AMPK) ([1]; oxidative stress-induced senescent hBM-MSCs, Lico D 1 μg/mL 72 h (FIGS. 3E, 3F)): significantly restored | expression levels of LC3 and BECN1 [2, 16]: significantly increased | expression of SQSTM1 [2, 16]: decreased | body weight [9]: No significant differences | RAGE expression at the mRNA level [10]: significantly reduced | number of times of target platform crossing (MWM) ([11]; Lico D 0.5 mg/kg/day i.p. vs D-Gal treated mouse (FIG. 6C)): tendency of increasing | escape latency (MWM) ([11]; Lico D 0.5 mg/kg/day i.p. vs D-Gal treated mouse, similar to control (FIG. 6A)): markedly short time | duration in target quadrant (MWM) ([11]; Lico D 0.5 mg/kg/day i.p. vs D-Gal treated mouse, similar to control (FIG. 6B)): significantly longer time | expression levels of p53 and p21, heart ([12]; heart tissue, Lico D 0.5 mg/kg/day i.p. vs D-Gal-injected mice (FIGS. 7A-7C)): significantly reduced | expression levels of p53 and p21, hippocampus ([12]; hippocampus tissue, Lico D 0.5 mg/kg/day i.p. vs D-Gal-injected mice (FIGS. 7F-7H)): significantly reduced | AMPK activation, heart ([13]; heart tissue, Lico D 0.5 mg/kg/day i.p. vs D-Gal treatment (FIGS. 7D, 7E)): significantly increased | AMPK activation, hippocampus ([13]; hippocampus tissue, Lico D 0.5 mg/kg/day i.p. vs D-Gal treatment (FIGS. 7I, 7J)): significantly increased | expression of autophagy markers (LC3 II, BECN1 and SQSTM1) [14]: markedly increased | anticancer activity [15]: anticancer activity in a dose-dependent manner

O=C1O[C@H]([C@@H](O)CO)C(O)=C1O [ascorbic acid, reference compound]
number of SA-β-gal-positive cells [7]: 17%
